Assay results reported in patent US10100097B2, “GIP-GLP-1 dual agonist compounds and methods” (Zealand Pharma A/S, priority 2012, dated 2018).
Numbered stars: 1 amine (or outer) side, 2 acyl side, 3 side chain; on linkers, the order of the positions; unused ones are H or OH. Square brackets hold non-standard residues; d marks the D form. Side chains are listed from the residue outwards. Peptide text beside a SMILES is read from it. * marks the point of attachment. γGlu = O=C(O)[C@H](CCC(=O)[*:2])N[*:1]; Palmitoyl = CCCCCCCCCCCCCCCC(=O)*; Aib = CC(C)(N)C(=O)O

Biological target: T1, human GLP-1 R (Homo sapiens, UniProt P43220)
T1 construct: expressed in transfected cells
T1 sequence (P43220 24-463): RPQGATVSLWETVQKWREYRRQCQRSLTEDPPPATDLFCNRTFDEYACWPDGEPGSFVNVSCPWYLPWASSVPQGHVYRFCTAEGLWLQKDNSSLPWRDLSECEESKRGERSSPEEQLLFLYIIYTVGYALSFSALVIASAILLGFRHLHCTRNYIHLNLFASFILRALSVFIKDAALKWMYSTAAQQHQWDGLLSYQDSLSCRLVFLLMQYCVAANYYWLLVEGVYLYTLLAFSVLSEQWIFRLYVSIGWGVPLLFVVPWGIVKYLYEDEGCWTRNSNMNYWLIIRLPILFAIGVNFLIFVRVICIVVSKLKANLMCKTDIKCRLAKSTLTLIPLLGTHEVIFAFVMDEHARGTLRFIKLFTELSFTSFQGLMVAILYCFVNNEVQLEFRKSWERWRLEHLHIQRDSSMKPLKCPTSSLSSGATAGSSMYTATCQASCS
Test: Human GLP-1 receptor (GLP-1 R) activity assay, cAMP induction (AlphaScreen cAMP kit)
Type: cell-based
Settings: HEK293 cells expressing the human GLP-1 R, 15 min at 37° C., average values of multiple determinations, read-out: GLP1 R (EC50 in nM)
Description: Human GIP Receptor (GIP R) and GLP-1 Receptor (GLP-1 R) Activity Assay
In vitro effects of peptide conjugates of the invention were assessed by measuring the induction of cAMP following stimulation of the respective receptor by GIP, GLP1 or analogues of these, as outlined in the invention, using the AlphaSceen® cAMP kit from Perkin-Elmer according to instructions. Briefly. HEK293 cells expressing the human GIP R or GLP-1 R (stable cell lines generated through transfection of the cDNA for human GIP R or GLP-1 and selection of stable clones) were seeded at 30,000 cells/well in 96-well microtiter plates coated with 0.01% poly-L-lysine, and grown for 1 day in culture in 200 μl growth medium (DMEM, 10% FCS, Penicillin (100 IU/ml), Streptomycin (100 μg/ml)). On the day of analysis, growth medium was removed and the cells were washed once with […] Tyrode's buffer (Tyrode's Salts (9.6 g/1), 10 mM HEPES, pH 7.4). […] The Assay buffer was removed and cells are lysed in 80 μl Lysis buffer (0.1% w/v BSA, 5 mM HEPES, 0.3% v/v Tween-20) per well. From each well 10 μl lysed cells was transferred to a 384-well plate and mixed with 15 μl bead-mix (1 Unit/15 μl anti-cAMP Acceptor Beads, 1 Unit/15 μl Donor Beads, and 1 Unit/15 μl Biotinylated cAMP in Assay Buffer). The plates were mixed and incubated in the dark for an hour at room temperature before measuring using an Envision™ plate reader (Perkin-Elmer).

Row | SMILES | EC50 [nM]
1 | CC[C@H](C)[C@H](NC(=O)[C@H](CO)NC(=O)[C@H](Cc1ccc(O)cc1)NC(=O)[C@H](CC(=O)O)NC(=O)[C@H](CO)NC(=O)[C@@H](NC(=O)[C@H](Cc1ccccc1)NC(=O)[C@@H](NC(=O)CNC(=O)[C@H](CCC(=O)O)NC(=O)C(C)(C)NC(=O)[C@@H](N)Cc1ccc(O)cc1)[C@@H](C)O)[C@@H](C)O)C(=O)N[C@@H](Cc1ccc(O)cc1)C(=O)N[C@@H](CC(C)C)C(=O)N[C@@H](CCC(=O)O)C(=O)N[C@@H](CCCCN)C(=O)N[C@@H](CCCCN)C(=O)N[C@@H](C)C(=O)N[C@@H](C)C(=O)N[C@@H](CCCCN)C(=O)N[C@@H](CC(=O)O)C(=O)N[C@@H](Cc1ccccc1)C(=O)N[C@H](C(=O)N[C@@H](CCC(=O)O)C(=O)N[C@@H](Cc1c[nH]c2ccccc12)C(=O)N[C@@H](CC(C)C)C(=O)N[C@@H](CC(C)C)C(=O)N[C@@H](CO)C(=O)N[C@@H](C)C(N)=O)C(C)C [Compound 37] (H-Y[Aib]EGTFTSDYSIYLEKKAAKDFVEWLLSA-NH2) | 0.018
2 | CC[C@H](C)[C@H](NC(=O)[C@H](CO)NC(=O)[C@H](Cc1ccc(O)cc1)NC(=O)[C@H](CC(=O)O)NC(=O)[C@H](CO)NC(=O)[C@@H](NC(=O)[C@H](Cc1ccccc1)NC(=O)[C@@H](NC(=O)CNC(=O)[C@H](CCC(=O)O)NC(=O)C(C)(C)NC(=O)[C@@H](N)Cc1ccc(O)cc1)[C@@H](C)O)[C@@H](C)O)C(=O)N[C@@H](Cc1ccc(O)cc1)C(=O)N[C@@H](CC(C)C)C(=O)N[C@@H](CCC(=O)O)C(=O)N[C@@H](CCCCN)C(=O)N[C@@H](CCCCN)C(=O)N[C@@H](C)C(=O)N[C@@H](CCC(N)=O)C(=O)N[C@@H](CCCCN)C(=O)N[C@@H](CCC(=O)O)C(=O)N[C@@H](Cc1ccccc1)C(=O)N[C@H](C(=O)N[C@@H](CCC(=O)O)C(=O)N[C@@H](Cc1c[nH]c2ccccc12)C(=O)N[C@@H](CC(C)C)C(=O)N[C@@H](CC(C)C)C(=O)N[C@@H](CO)C(=O)N[C@@H](C)C(N)=O)C(C)C [Compound 39] (H-Y[Aib]EGTFTSDYSIYLEKKAQKEFVEWLLSA-NH2) | 0.011
3 | CC[C@H](C)[C@H](NC(=O)[C@H](CO)NC(=O)[C@H](Cc1ccc(O)cc1)NC(=O)[C@H](CC(=O)O)NC(=O)[C@H](CO)NC(=O)[C@@H](NC(=O)[C@H](Cc1ccccc1)NC(=O)[C@@H](NC(=O)CNC(=O)[C@H](CCC(=O)O)NC(=O)C(C)(C)NC(=O)[C@@H](N)Cc1ccc(O)cc1)[C@@H](C)O)[C@@H](C)O)C(=O)N[C@@H](Cc1ccc(O)cc1)C(=O)N[C@@H](CC(C)C)C(=O)N[C@@H](CC(=O)O)C(=O)N[C@@H](CCC(=O)O)C(=O)N[C@@H](CCCCN)C(=O)N[C@@H](C)C(=O)N[C@@H](C)C(=O)N[C@@H](CCCCN)C(=O)N[C@@H](CC(=O)O)C(=O)N[C@@H](Cc1ccccc1)C(=O)N[C@H](C(=O)N[C@@H](CCC(=O)O)C(=O)N[C@@H](Cc1c[nH]c2ccccc12)C(=O)N[C@@H](CC(C)C)C(=O)N[C@@H](CC(C)C)C(=O)N[C@@H](CO)C(=O)N[C@@H](C)C(N)=O)C(C)C [Compound 40] (H-Y[Aib]EGTFTSDYSIYLDEKAAKDFVEWLLSA-NH2) | 0.022
4 | CC[C@H](C)[C@H](NC(=O)[C@H](CO)NC(=O)[C@H](Cc1ccc(O)cc1)NC(=O)[C@H](CC(=O)O)NC(=O)[C@H](CO)NC(=O)[C@@H](NC(=O)[C@H](Cc1ccccc1)NC(=O)[C@@H](NC(=O)CNC(=O)[C@H](CCC(=O)O)NC(=O)C(C)(C)NC(=O)[C@@H](N)Cc1ccc(O)cc1)[C@@H](C)O)[C@@H](C)O)C(=O)N[C@@H](Cc1ccc(O)cc1)C(=O)N[C@@H](CC(C)C)C(=O)N[C@@H](CCC(=O)O)C(=O)N[C@@H](CO)C(=O)N[C@@H](CCCCN)C(=O)N[C@@H](C)C(=O)N[C@@H](C)C(=O)N[C@@H](Cc1c[nH]cn1)C(=O)N[C@@H](CC(=O)O)C(=O)N[C@@H](Cc1ccccc1)C(=O)N[C@H](C(=O)N[C@@H](CCC(=O)O)C(=O)N[C@@H](Cc1c[nH]c2ccccc12)C(=O)N[C@@H](CC(C)C)C(=O)N[C@@H](CC(C)C)C(=O)N[C@@H](CO)C(=O)N[C@@H](C)C(N)=O)C(C)C [Compound 41] (H-Y[Aib]EGTFTSDYSIYLESKAAHDFVEWLLSA-NH2) | 0.011
5 | CCCCCCCCCCCCCCCC(=O)N[C@@H](CCC(=O)NCCCC[C@H](NC(=O)[C@H](CO)NC(=O)[C@H](CC(=O)O)NC(=O)[C@H](CC(C)C)NC(=O)[C@H](Cc1ccc(O)cc1)NC(=O)[C@H](CCCCN)NC(=O)[C@H](CO)NC(=O)[C@H](Cc1ccc(O)cc1)NC(=O)[C@H](CC(=O)O)NC(=O)[C@H](CO)NC(=O)[C@@H](NC(=O)[C@H](Cc1ccccc1)NC(=O)[C@@H](NC(=O)CNC(=O)[C@H](CCC(=O)O)NC(=O)C(C)(C)NC(=O)[C@@H](N)Cc1ccc(O)cc1)[C@@H](C)O)[C@@H](C)O)C(=O)N[C@@H](C)C(=O)N[C@@H](C)C(=O)N[C@@H](Cc1c[nH]cn1)C(=O)N[C@@H](CC(=O)O)C(=O)N[C@@H](Cc1ccccc1)C(=O)N[C@H](C(=O)N[C@@H](CCC(=O)O)C(=O)N[C@@H](Cc1c[nH]c2ccccc12)C(=O)N[C@@H](CC(C)C)C(=O)N[C@@H](CC(C)C)C(=O)N[C@@H](CO)C(=O)N[C@@H](C)C(N)=O)C(C)C)C(=O)O [Compound 45] (H-Y[Aib]EGTFTSDYSKYLDSK([γGlu-Palmitoyl])AAHDFVEWLLSA-NH2) | 0.11
6 | CCCCCCCCCCCCCCCC(=O)N[C@@H](CCC(=O)NCCCC[C@H](NC(=O)[C@H](CCC(=O)O)NC(=O)[C@H](CC(=O)O)NC(=O)[C@H](CC(C)C)NC(=O)[C@H](Cc1ccc(O)cc1)NC(=O)[C@@H](NC(=O)[C@H](CO)NC(=O)[C@H](Cc1ccc(O)cc1)NC(=O)[C@H](CC(=O)O)NC(=O)[C@H](CO)NC(=O)[C@@H](NC(=O)[C@H](Cc1ccccc1)NC(=O)[C@@H](NC(=O)CNC(=O)[C@H](CCC(=O)O)NC(=O)C(C)(C)NC(=O)[C@@H](N)Cc1ccc(O)cc1)[C@@H](C)O)[C@@H](C)O)[C@@H](C)CC)C(=O)N[C@@H](C)C(=O)N[C@@H](C)C(=O)N[C@@H](CCCCN)C(=O)N[C@@H](CC(=O)O)C(=O)N[C@@H](Cc1ccccc1)C(=O)N[C@H](C(=O)N[C@@H](CCC(=O)O)C(=O)N[C@@H](Cc1c[nH]c2ccccc12)C(=O)N[C@@H](CC(C)C)C(=O)N[C@@H](CCC(=O)O)C(=O)N[C@@H](CO)C(=O)N[C@@H](C)C(N)=O)C(C)C)C(=O)O [Compound 48] (H-Y[Aib]EGTFTSDYSIYLDEK([γGlu-Palmitoyl])AAKDFVEWLESA-NH2) | 0.041
7 | CCCCCCCCCCCCCCCC(=O)N[C@@H](CCC(=O)NCCCC[C@H](NC(=O)[C@H](CO)NC(=O)[C@H](CC(=O)O)NC(=O)[C@H](CC(C)C)NC(=O)[C@H](Cc1ccc(O)cc1)NC(=O)[C@H](CCCCN)NC(=O)[C@H](CO)NC(=O)[C@H](Cc1ccc(O)cc1)NC(=O)[C@H](CC(=O)O)NC(=O)[C@H](CO)NC(=O)[C@@H](NC(=O)[C@H](Cc1ccccc1)NC(=O)[C@@H](NC(=O)CNC(=O)[C@H](CCC(=O)O)NC(=O)C(C)(C)NC(=O)[C@@H](N)Cc1ccc(O)cc1)[C@@H](C)O)[C@@H](C)O)C(=O)N[C@@H](C)C(=O)N[C@@H](C)C(=O)N[C@@H](Cc1c[nH]cn1)C(=O)N[C@@H](CC(=O)O)C(=O)N[C@@H](Cc1ccccc1)C(=O)N[C@H](C(=O)N[C@@H](CCC(=O)O)C(=O)N[C@@H](Cc1c[nH]c2ccccc12)C(=O)N[C@@H](CC(C)C)C(=O)N[C@@H](CC(C)C)C(=O)N[C@@H](CCCNC(=N)N)C(=O)N[C@@H](C)C(N)=O)C(C)C)C(=O)O [Compound 51] (H-Y[Aib]EGTFTSDYSKYLDSK([γGlu-Palmitoyl])AAHDFVEWLLRA-NH2) | 0.11
